How the values were obtained:
EGFR = EGFR (Homo sapiens, UniProt P00533); test: EGFR kinase assay (PGT-coated 96-well plates); type: biochemical; details: read-out: IC50 (nM) ± SEM EGFR
Description: (§1) The EGFR kinase assay was carried out in 96-well plates coated with PGT (poly l-glutamic acid l-tyrosine, 4:1, Sigma Aldrich, St. Louis, MO) as previously described. IC50 values were calculated using GraphPad Prism 5. Each experiment was carried out at least three times. The VEGFR-2 kinase assay was carried out in 96-well streptavidin coated plate using recombinant human VEGFR-2/KDR ELISA kit according to manufacturer’s instructions.

[1] = molecular target: T1, recombinant human VEGFR-2/KDR (Homo sapiens, UniProt P35968); test: VEGFR-2 kinase assay (VEGFR-2/KDR ELISA kit); type: biochemical; details: read-out: IC50 (nM) ± SEM VEGFR-2
T1 construct: purchased
T1 sequence (P35968 20-1356): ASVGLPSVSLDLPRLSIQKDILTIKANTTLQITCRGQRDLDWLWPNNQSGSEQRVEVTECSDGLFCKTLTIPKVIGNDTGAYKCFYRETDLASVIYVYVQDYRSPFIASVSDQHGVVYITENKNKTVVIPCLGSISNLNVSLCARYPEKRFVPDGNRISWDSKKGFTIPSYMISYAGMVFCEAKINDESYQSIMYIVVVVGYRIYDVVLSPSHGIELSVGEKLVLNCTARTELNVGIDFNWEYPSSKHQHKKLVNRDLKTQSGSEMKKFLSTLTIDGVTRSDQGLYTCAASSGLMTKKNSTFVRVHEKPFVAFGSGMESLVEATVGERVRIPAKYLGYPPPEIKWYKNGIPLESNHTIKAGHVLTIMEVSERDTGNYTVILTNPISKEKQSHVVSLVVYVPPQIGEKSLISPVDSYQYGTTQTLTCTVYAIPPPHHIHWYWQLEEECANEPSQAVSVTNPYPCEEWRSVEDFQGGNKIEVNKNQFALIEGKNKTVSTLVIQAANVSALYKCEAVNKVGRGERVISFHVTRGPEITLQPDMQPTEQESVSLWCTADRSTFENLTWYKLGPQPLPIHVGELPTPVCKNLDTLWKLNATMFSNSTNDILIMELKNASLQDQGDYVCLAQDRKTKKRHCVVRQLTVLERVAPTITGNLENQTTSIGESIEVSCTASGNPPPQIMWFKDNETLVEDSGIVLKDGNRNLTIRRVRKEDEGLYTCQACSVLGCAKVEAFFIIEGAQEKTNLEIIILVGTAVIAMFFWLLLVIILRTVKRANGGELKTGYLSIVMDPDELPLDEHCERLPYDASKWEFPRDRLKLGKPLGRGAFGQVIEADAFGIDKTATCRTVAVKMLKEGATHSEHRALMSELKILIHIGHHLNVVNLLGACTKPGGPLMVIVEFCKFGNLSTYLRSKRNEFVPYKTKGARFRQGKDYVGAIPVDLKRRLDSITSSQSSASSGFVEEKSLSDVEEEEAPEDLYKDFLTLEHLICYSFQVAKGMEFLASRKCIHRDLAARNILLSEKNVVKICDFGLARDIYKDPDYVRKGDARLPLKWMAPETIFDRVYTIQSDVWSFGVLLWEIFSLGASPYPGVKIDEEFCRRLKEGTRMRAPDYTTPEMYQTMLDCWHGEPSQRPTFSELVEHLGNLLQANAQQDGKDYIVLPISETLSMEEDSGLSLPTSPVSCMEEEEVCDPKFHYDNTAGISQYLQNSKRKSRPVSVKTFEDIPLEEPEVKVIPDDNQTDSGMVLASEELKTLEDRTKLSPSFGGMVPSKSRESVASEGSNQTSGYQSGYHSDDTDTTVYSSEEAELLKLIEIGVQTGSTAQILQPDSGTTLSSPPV
Description: as §1

[2] = system: WI-38 human lung fibroblast cells; test: MTT cytotoxicity assay on normal cells; type: cell-based; details: for IC50: Homo sapiens, WI-38, normal lung fibroblasts, MTT, 24 h, n = 3, read-out: IC50 (µM) ± SEM WI-38; for Mean tumour selectivity: S. I. (WI-38/A549 and H441)
Description: All chemicals used in this study were analytical or cell-culture grade.
Cytotoxicity was measured using the MTT assay. […] The medium was aspirated and 150 μL DMSO was added to solubilise MTT formazan crystals. The plates were then shaken, and the optical density was determined at 570 nm using an ELISA plate reader (Model 550, Bio-Rad, Hercules, CA). At least three independent experiments were performed.

A549 cells migration = test: Scratch wound healing assay; type: cell-based, human; details: 36 h, vs control
Description: Figure 5. Effect of compounds 10b and 10d on A549 cells migration. […] Representative images of scratched areas in confluent A549 cell layers.
A549 cells were seeded and incubated in 6-well cell culture plates till reaching confluence. Then, the confluent monolayers were scratched to form a “wound” using a sterile needle. The cells were treated with either vehicle as a control, 10b or 10d for 36 h. The images were recorded at 0 and 36 h to monitor the migration of cells into the wounded area using a light photomicroscope.

A549 cells = test: Annexin V-FITC/PI apoptosis assay; type: cell-based, human; details: A549, 5 μM, 24 h; control 5.4% (10b), […] (10d)
Description: Figure 7. Apoptotic effect of compounds 10b and 10d on A549 cells. (A) Representative cytograms of apoptotic A549 cells stimulated with 0 (control), 2.5 or 5 μM 10b or 10d, for 24 h. The lower-right (annexin V + PI- cells) and the upper-right (annexin V + PI + cells) quadrants show early and late apoptotic cells, and the lower-left (annexin V-PI- cells) and the upper-left ([…]) quadrants represent viable and necrotic cells, respectively. (B) Quantification of annexin V-positive apoptotic cells upon stimulation with 10b or 10d. The values are the means ± SEM of three different experiments. *p < 0.05 and *p < 0.01 indicate significant differences compared with control.
DNA content was measured using 7-aminoactinmycin D (7AAD) (Biotium, Inc., Hayward, CA) staining and is commonly used for cell cycle phase analysis as previously described. Apoptosis was evaluated using the annexin V/propidium iodide (PI) staining kit (BioLegend, San Diego, CA) according to the manufacturer’s instructions and as previously described.

A549 lung cancer cells = test: Anti-proliferative MTT assay; details: Homo sapiens, A549, 24 h; for inhibition at 10 µM: read-out: % Growth inhibition ± SEM A549; for IC50: read-out: IC50 (µM) ± SEM A549
TEK = TEK (Homo sapiens, UniProt Q02763); test: Kinase selectivity profiling, Z'-LYTE FRET
EPHB2 = EPHB2 (Homo sapiens, UniProt P29323); test: Kinase selectivity profiling, Z'-LYTE FRET
Sequence of EPHB2 (P29323 19-1055): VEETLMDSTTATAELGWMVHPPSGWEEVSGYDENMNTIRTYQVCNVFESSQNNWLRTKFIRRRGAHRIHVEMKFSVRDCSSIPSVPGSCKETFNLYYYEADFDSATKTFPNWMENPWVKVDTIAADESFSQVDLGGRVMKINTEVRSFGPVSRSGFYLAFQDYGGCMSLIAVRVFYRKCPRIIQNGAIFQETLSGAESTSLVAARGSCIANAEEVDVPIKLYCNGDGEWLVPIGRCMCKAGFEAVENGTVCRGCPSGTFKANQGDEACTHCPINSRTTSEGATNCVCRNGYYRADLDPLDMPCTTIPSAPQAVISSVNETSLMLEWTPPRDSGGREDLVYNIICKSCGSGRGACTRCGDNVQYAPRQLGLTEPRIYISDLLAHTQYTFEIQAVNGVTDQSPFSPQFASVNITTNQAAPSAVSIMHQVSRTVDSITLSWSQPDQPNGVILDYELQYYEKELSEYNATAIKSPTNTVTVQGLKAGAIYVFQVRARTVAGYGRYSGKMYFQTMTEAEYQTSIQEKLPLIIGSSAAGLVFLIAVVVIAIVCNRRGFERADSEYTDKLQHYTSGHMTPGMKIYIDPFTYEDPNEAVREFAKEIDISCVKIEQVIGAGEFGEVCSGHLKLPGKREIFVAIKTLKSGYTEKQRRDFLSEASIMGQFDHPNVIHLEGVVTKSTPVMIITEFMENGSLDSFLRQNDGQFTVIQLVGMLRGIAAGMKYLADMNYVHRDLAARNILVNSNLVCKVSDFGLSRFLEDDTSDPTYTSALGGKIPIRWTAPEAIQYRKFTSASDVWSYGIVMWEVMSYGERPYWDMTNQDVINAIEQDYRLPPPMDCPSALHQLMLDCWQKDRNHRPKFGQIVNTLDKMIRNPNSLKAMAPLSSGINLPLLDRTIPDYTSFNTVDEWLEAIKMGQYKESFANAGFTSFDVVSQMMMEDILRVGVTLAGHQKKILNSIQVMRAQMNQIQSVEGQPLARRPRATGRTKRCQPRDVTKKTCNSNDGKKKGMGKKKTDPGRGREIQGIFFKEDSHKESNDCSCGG

LCK = LCK (Homo sapiens, UniProt P06239); test: Kinase selectivity profiling, Z'-LYTE FRET
Sequence of LCK (P06239 whole entry): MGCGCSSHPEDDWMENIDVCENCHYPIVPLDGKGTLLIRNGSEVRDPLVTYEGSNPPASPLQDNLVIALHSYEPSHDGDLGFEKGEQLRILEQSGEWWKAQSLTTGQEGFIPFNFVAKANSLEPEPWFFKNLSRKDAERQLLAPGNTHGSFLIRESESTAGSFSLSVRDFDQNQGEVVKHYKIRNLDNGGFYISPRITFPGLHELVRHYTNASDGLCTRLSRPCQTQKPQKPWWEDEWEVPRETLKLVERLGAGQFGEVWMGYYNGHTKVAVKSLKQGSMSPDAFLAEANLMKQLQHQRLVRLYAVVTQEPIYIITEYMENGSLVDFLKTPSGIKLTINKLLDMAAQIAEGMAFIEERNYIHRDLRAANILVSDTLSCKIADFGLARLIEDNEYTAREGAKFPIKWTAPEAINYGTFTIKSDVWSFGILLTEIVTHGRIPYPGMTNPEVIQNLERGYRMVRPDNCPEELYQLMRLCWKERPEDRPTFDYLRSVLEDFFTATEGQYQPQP

PKC = test: Kinase selectivity profiling, Z'-LYTE FRET; details: read-out: IC50 (nM) PKC
CDK5 = CDK5 (Homo sapiens, UniProt Q00535); test: Kinase selectivity profiling, Z'-LYTE FRET
Sequence of CDK5 (Q00535 whole entry): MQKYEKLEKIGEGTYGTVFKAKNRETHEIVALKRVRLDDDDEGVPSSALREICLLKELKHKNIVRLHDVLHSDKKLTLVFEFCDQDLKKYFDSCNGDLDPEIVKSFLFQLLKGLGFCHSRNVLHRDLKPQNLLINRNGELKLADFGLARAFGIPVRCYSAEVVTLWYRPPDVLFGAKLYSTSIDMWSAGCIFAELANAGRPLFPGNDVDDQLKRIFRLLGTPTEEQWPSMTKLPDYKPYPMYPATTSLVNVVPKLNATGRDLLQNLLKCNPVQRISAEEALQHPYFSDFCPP
Sequence of CDK5 (Q15078 whole entry partner): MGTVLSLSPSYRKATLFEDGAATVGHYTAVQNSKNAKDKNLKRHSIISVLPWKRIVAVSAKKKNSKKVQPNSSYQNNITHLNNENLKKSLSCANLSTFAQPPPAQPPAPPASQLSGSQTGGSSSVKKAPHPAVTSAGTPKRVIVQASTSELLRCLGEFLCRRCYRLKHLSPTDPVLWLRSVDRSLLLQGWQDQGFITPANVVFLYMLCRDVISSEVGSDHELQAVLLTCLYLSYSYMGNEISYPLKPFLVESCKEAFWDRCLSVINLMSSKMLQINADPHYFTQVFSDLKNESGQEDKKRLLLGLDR

Sequence of EGFR (P00533 25-1210): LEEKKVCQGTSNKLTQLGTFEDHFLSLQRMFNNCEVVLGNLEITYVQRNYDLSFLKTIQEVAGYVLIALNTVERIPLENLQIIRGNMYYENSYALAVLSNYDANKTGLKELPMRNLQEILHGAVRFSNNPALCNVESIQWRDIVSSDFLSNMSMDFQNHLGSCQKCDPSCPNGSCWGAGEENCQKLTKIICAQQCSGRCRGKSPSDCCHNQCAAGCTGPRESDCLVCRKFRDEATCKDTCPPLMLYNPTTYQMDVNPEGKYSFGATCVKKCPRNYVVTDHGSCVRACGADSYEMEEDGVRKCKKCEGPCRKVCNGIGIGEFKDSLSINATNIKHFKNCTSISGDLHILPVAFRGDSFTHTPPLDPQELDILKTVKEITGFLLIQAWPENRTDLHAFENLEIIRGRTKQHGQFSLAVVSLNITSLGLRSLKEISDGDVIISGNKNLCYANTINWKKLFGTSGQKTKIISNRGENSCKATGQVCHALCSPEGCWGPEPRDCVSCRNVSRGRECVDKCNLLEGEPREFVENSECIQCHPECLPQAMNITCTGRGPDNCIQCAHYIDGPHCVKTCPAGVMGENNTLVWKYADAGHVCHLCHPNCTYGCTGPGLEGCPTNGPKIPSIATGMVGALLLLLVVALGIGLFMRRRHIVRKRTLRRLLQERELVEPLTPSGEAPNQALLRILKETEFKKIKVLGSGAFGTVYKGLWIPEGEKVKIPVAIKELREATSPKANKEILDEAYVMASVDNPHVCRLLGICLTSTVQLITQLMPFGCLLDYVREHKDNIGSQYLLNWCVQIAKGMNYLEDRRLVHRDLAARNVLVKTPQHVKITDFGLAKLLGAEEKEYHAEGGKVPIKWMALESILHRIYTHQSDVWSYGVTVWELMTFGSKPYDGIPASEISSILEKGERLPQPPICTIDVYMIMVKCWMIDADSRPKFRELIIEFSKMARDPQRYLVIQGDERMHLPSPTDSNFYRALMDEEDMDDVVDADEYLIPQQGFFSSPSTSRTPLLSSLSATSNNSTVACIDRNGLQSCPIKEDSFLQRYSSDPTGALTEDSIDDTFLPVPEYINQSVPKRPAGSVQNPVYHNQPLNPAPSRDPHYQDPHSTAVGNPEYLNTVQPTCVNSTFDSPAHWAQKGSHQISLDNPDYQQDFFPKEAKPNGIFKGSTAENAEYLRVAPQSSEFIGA

| Structure (SMILES) | IC50 (EGFR) | IC50 [1] | IC50 [2] | Mean tumour selectivity [2] | A549 cancer cell migration (A549 cells migration) | annexin V-positive apoptotic cells (A549 cells) | inhibition at 10 µM (A549 lung cancer cells) | IC50 (A549 lung cancer cells) | IC50 (TEK) | IC50 (EPHB2) | IC50 (LCK) | IC50 (PKC) | IC50 (CDK5) |
| --- | --- | --- | --- | --- | --- | --- | --- | --- | --- | --- | --- | --- | --- |
| COc1ccc(C2CC(c3ccc(Cl)cc3Cl)=NN2c2nc(C)c(C(=O)Nc3ccccc3)s2)cc1OC (centres unmarked) [Compound 10d, 2-(3-(2,4-Dichlorophenyl)-5-(3,4-dimethoxyphenyl)-4,5-dihydro-1H-pyrazol-1-yl)-4-methyl-N-phenylthiazole-5-carboxamide] | 32.5 ± 2.2 nM | 43 ± 2.4 nM | 51.4 ± 3.5 µM | 15.3 | effective in reducing the cancer cell migration | 28.5% | 95.3 ± 5.3% | 2.9 ± 0.2 µM | > 2000 nM | > 2000 nM | > 2000 nM | > 2000 nM | 993 ± 15 nM |
| CCOC(=O)c1sc(N2N=C(c3ccc(Cl)cc3Cl)CC2c2ccc(OC)cc2)nc1C (centres unmarked) [Compound 10b, Ethyl-2-(3-(2,4-dichlorophenyl)-5-(4-methoxyphenyl)-4,5-dihydro-1H-pyrazol-1-yl)-4-methylthiazole-5-carboxylate] | 40.7 ± 1 nM | 78.4 ± 1.5 nM | 72.4 ± 7.2 µM | 16.1 | effective in reducing the cancer cell migration | 16.5% | 88.3 ± 4.9% | 4.2 ± 0.8 µM | > 2000 nM | > 2000 nM | > 2000 nM | > 2000 nM | 1140 ± 20 nM |

— paper PMC9415638, “Discovery of novel thiazolyl-pyrazolines as dual EGFR and VEGFR-2 inhibitors endowed with in vitro antitumor activity towards non-small lung cancer” (Journal of Enzyme Inhibition and Medicinal Chemistry, 2022)
